Source: the supplement of paper PMC10307832

Compound: Cn1c(=O)n(-c2ccc(C(C)(C)C#N)cc2)c2c3cc(-c4cnc5ccccc5c4)ccc3ncc21 [Dactolisib] + N=C(N)NC(=N)NCCc1ccccc1 [Phenformin] (partner 250 µM)
Assay: relative viability (nuclei count vs DMSO), 5 days (fraction); higher = more cells survive
Settings: first compound 0.2 µM
Summary of the method: (§1)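 Lung cancer cell lines were pin-tool dosed in 1536-well plates on the day after seeding, with either a lone drug or a fixed anchor-drug dose plus five library-drug doses (not always all listed) in √10 steps. Nuclei were counted on 4× images after 5 days. Relative viability is the ratio of treated-well to vehicle-well nuclei counts, with each value a median of duplicate plates.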

| Cell Line | relative viability |
| --- | --- |
| NCI-H1651 | 0.204 |

Compound: C1CCC(CC1)N(CCNCCC2=C3C(=C(C=C2)O)NC(=O)CO3)C(=O)CCNCCC4=CC(=C(C=C4)Cl)Cl [AZ505] + CC(=O)c1c(C)c2cnc(Nc3ccc(N4CCNCC4)cn3)nc2n(C2CCCC2)c1=O [Palbociclib] (partner 0.5 µM)
Assay: as above
Settings: first compound 0.08 µM
Summary of the method: as §1

| Cell Line | relative viability |
| --- | --- |
| HOP-62 | 0.403 |
| HCC-44 | 0.966 |
| NCI-H522 | 0.91 |
| LU99A | 0.363 |
| BEN | 0.458 |
| HARA | 0.198 |
| SW 900 | 0.542 |
| HCC-78 | 0.452 |
| NCI-H322M | 0.53 |
| LCLC-97TM1 | 0.213 |
| NCI-H2009 | 0.191 |
| A-427 | 0.529 |
| NCI-H441 | 0.228 |
| NCI-H661 | 0.404 |
| NCI-H1734 | 0.351 |
| NCI-H460 | 0.183 |
| NCI-H2347 | 0.37 |
| SW 1573 | 0.342 |
| NCI-H1395 | 0.593 |
| 201T | 0.36 |
| NCI-H1915 | 0.528 |
| HCC-827 | 0.416 |
| LXF-289 | 0.552 |
| NCI-H23 | 0.465 |
| NCI-H647 | 0.362 |
| CAL-12T | 0.324 |
| NCI-H1651 | 0.512 |

Same assay, conditions: first compound 0.253 µM

| Cell Line | relative viability |
| --- | --- |
| HOP-62 | 0.535 |
| HCC-44 | 1.03 |
| NCI-H522 | 0.946 |
| LU99A | 0.447 |
| BEN | 0.457 |
| HARA | 0.266 |
| SW 900 | 0.505 |
| HCC-78 | 0.409 |
| LCLC-97TM1 | 0.252 |
| NCI-H2009 | 0.203 |
| A-427 | 0.526 |
| NCI-H441 | 0.233 |
| NCI-H661 | 0.433 |
| NCI-H1734 | 0.373 |
| NCI-H460 | 0.162 |
| NCI-H2347 | 0.451 |
| SW 1573 | 0.393 |
| 201T | 0.353 |
| NCI-H1915 | 0.528 |
| HCC-827 | 0.551 |
| LXF-289 | 0.608 |
| NCI-H23 | 0.522 |
| NCI-H647 | 0.461 |
| CAL-12T | 0.437 |
| NCI-H1651 | 0.517 |

Same assay, conditions: first compound 0.8 µM

| Cell Line | relative viability |
| --- | --- |
| HOP-62 | 0.461 |
| HCC-44 | 0.945 |
| NCI-H522 | 0.891 |
| LU99A | 0.403 |
| BEN | 0.442 |
| HARA | 0.185 |
| SW 900 | 0.471 |
| HCC-78 | 0.4 |
| NCI-H322M | 0.473 |
| LCLC-97TM1 | 0.219 |
| NCI-H2009 | 0.174 |
| A-427 | 0.499 |
| NCI-H441 | 0.258 |
| NCI-H661 | 0.402 |
| NCI-H1734 | 0.324 |
| NCI-H460 | 0.147 |
| NCI-H2347 | 0.38 |
| SW 1573 | 0.389 |
| NCI-H1395 | 0.638 |
| 201T | 0.331 |
| NCI-H1915 | 0.478 |
| HCC-827 | 0.374 |
| LXF-289 | 0.568 |
| NCI-H23 | 0.505 |
| NCI-H647 | 0.387 |
| CAL-12T | 0.372 |
| NCI-H1651 | 0.502 |

Same assay, conditions: first compound 2.53 µM

| Cell Line | relative viability |
| --- | --- |
| HOP-62 | 0.475 |
| HCC-44 | 0.976 |
| NCI-H522 | 1.04 |
| BEN | 0.48 |
| HARA | 0.218 |
| SW 900 | 0.509 |
| HCC-78 | 0.435 |
| NCI-H322M | 0.489 |
| NCI-H2009 | 0.153 |
| A-427 | 0.512 |
| NCI-H441 | 0.231 |
| NCI-H661 | 0.422 |
| NCI-H1734 | 0.411 |
| NCI-H460 | 0.187 |
| NCI-H2347 | 0.448 |
| SW 1573 | 0.441 |
| NCI-H1395 | 0.661 |
| 201T | 0.357 |
| NCI-H1915 | 0.44 |
| HCC-827 | 0.509 |
| LXF-289 | 0.594 |
| NCI-H23 | 0.533 |
| NCI-H647 | 0.429 |
| CAL-12T | 0.477 |
| NCI-H1651 | 0.498 |

Same assay, conditions: first compound 8 µM

| Cell Line | relative viability |
| --- | --- |
| HOP-62 | 0.52 |
| HCC-44 | 0.91 |
| NCI-H522 | 1.16 |
| LU99A | 0.367 |
| BEN | 0.498 |
| HARA | 0.224 |
| SW 900 | 0.542 |
| HCC-78 | 0.434 |
| NCI-H322M | 0.503 |
| LCLC-97TM1 | 0.232 |
| NCI-H2009 | 0.235 |
| A-427 | 0.527 |
| NCI-H441 | 0.223 |
| NCI-H661 | 0.372 |
| NCI-H1734 | 0.338 |
| NCI-H460 | 0.167 |
| NCI-H2347 | 0.485 |
| SW 1573 | 0.4 |
| NCI-H1395 | 0.686 |
| 201T | 0.353 |
| NCI-H1915 | 0.473 |
| HCC-827 | 0.525 |
| LXF-289 | 0.588 |
| NCI-H23 | 0.485 |
| NCI-H647 | 0.432 |
| CAL-12T | 0.618 |
| NCI-H1651 | 0.523 |

Compound: C1CCC(CC1)N(CCNCCC2=C3C(=C(C=C2)O)NC(=O)CO3)C(=O)CCNCCC4=CC(=C(C=C4)Cl)Cl [AZ505] + COc1cccc2cc(-c3nc([C@H]4CC[C@H](C(=O)O)CC4)n4ncnc(N)c34)[nH]c12 [OSI-027] (partner 0.5 µM)
Assay: as above
Settings: first compound 0.08 µM
Summary of the method: as §1

| Cell Line | relative viability |
| --- | --- |
| HOP-62 | 0.708 |
| HCC-44 | 0.468 |
| NCI-H522 | 0.713 |
| BEN | 0.287 |
| HARA | 0.269 |
| SW 900 | 0.441 |
| HCC-78 | 0.386 |
| NCI-H322M | 0.535 |
| LCLC-97TM1 | 0.389 |
| NCI-H2009 | 0.615 |
| A-427 | 0.416 |
| NCI-H441 | 0.66 |
| NCI-H661 | 0.681 |
| NCI-H1734 | 0.515 |
| NCI-H460 | 0.636 |
| NCI-H2347 | 0.25 |
| SW 1573 | 0.589 |
| NCI-H1395 | 0.685 |
| 201T | 0.688 |
| NCI-H1915 | 0.549 |
| HCC-827 | 0.691 |
| LXF-289 | 0.701 |
| NCI-H23 | 0.54 |
| NCI-H647 | 0.615 |
| CAL-12T | 0.545 |
| NCI-H1651 | 0.678 |

Same assay, conditions: first compound 0.253 µM

| Cell Line | relative viability |
| --- | --- |
| HOP-62 | 0.838 |
| HCC-44 | 0.594 |
| NCI-H522 | 0.583 |
| LU99A | 0.346 |
| BEN | 0.274 |
| HARA | 0.234 |
| SW 900 | 0.427 |
| HCC-78 | 0.33 |
| NCI-H322M | 0.332 |
| LCLC-97TM1 | 0.335 |
| NCI-H2009 | 0.591 |
| A-427 | 0.278 |
| NCI-H441 | 0.595 |
| NCI-H661 | 0.8 |
| NCI-H1734 | 0.539 |
| NCI-H460 | 0.71 |
| SW 1573 | 0.579 |
| NCI-H1395 | 0.543 |
| 201T | 0.721 |
| NCI-H1915 | 0.563 |
| HCC-827 | 0.844 |
| LXF-289 | 0.748 |
| NCI-H647 | 0.698 |
| CAL-12T | 0.548 |
| NCI-H1651 | 0.75 |

Same assay, conditions: first compound 0.8 µM

| Cell Line | relative viability |
| --- | --- |
| HOP-62 | 0.801 |
| HCC-44 | 0.534 |
| NCI-H522 | 0.691 |
| LU99A | 0.271 |
| BEN | 0.259 |
| HARA | 0.352 |
| SW 900 | 0.623 |
| HCC-78 | 0.37 |
| NCI-H322M | 0.601 |
| LCLC-97TM1 | 0.495 |
| NCI-H2009 | 0.582 |
| A-427 | 0.376 |
| NCI-H441 | 0.614 |
| NCI-H661 | 0.666 |
| NCI-H1734 | 0.573 |
| NCI-H460 | 0.57 |
| SW 1573 | 0.689 |
| NCI-H1395 | 0.563 |
| 201T | 0.813 |
| NCI-H1915 | 0.544 |
| HCC-827 | 0.753 |
| LXF-289 | 0.763 |
| NCI-H23 | 0.609 |
| NCI-H647 | 0.488 |
| CAL-12T | 0.667 |
| NCI-H1651 | 0.725 |

Same assay, conditions: first compound 2.53 µM

| Cell Line | relative viability |
| --- | --- |
| HOP-62 | 0.895 |
| HCC-44 | 0.639 |
| NCI-H522 | 0.812 |
| LU99A | 0.32 |
| BEN | 0.304 |
| HARA | 0.345 |
| SW 900 | 0.753 |
| HCC-78 | 0.438 |
| NCI-H322M | 0.572 |
| LCLC-97TM1 | 0.395 |
| NCI-H2009 | 0.539 |
| A-427 | 0.504 |
| NCI-H441 | 0.579 |
| NCI-H661 | 0.695 |
| NCI-H1734 | 0.559 |
| NCI-H460 | 0.57 |
| SW 1573 | 0.68 |
| NCI-H1395 | 0.622 |
| 201T | 0.91 |
| NCI-H1915 | 0.416 |
| HCC-827 | 0.846 |
| LXF-289 | 0.668 |
| NCI-H23 | 0.71 |
| NCI-H647 | 0.619 |
| CAL-12T | 0.645 |
| NCI-H1651 | 0.763 |

Same assay, conditions: first compound 8 µM

| Cell Line | relative viability |
| --- | --- |
| HOP-62 | 0.826 |
| HCC-44 | 0.486 |
| NCI-H522 | 0.809 |
| LU99A | 0.329 |
| BEN | 0.309 |
| HARA | 0.365 |
| SW 900 | 0.702 |
| HCC-78 | 0.466 |
| NCI-H322M | 0.553 |
| LCLC-97TM1 | 0.644 |
| NCI-H2009 | 0.59 |
| A-427 | 0.492 |
| NCI-H441 | 0.703 |
| NCI-H661 | 0.715 |
| NCI-H1734 | 0.576 |
| NCI-H460 | 0.845 |
| NCI-H2347 | 0.343 |
| SW 1573 | 0.63 |
| NCI-H1395 | 0.604 |
| 201T | 0.764 |
| NCI-H1915 | 0.587 |
| HCC-827 | 0.847 |
| LXF-289 | 0.959 |
| NCI-H23 | 0.563 |
| NCI-H647 | 0.693 |
| CAL-12T | 0.834 |
| NCI-H1651 | 0.717 |
